Measured values published in US20250163104A1, “MACROCYCLIC IMMUNOMODULATORS” (priority 2021, published 2025).
Where a SMILES comes first, the peptide text is derived from it. Bridges are numbered along the chain shown (N, C = ends). [ ]: non-standard residue; d: D form. The star is where a group is joined. ξ: configuration not given here. Bip = N[C@@H](Cc1ccc(-c2ccccc2)cc1)C(=O)O; Phe(3-Me) = Cc1cccc(C[C@H](N)C(=O)O)c1; 4Pal = N[C@@H](Cc1ccncc1)C(=O)O; Cha = N[C@@H](CC1CCCCC1)C(=O)O; Cit = NC(=O)NCCC[C@H](N)C(=O)O; Ile(3ξ) = CCC(C)[C@H](N)C(=O)O; Carboxymethyl = O=C(O)C*; Orn = NCCC[C@H](N)C(=O)O; Dab = NCC[C@H](N)C(=O)O; Dap = NC[C@H](N)C(=O)O

molecular target: T1, human PD-1 / PD-L1-Ig binding on Jurkat cell line over-expressing human PD-1 (Jurkat-PD-1) (Homo sapiens, UniProt Q15116); experiment: Jurkat-PD-1 Cell Binding High-Content Screening Assay (CBA); assay type: cell-based; details: Jurkat-PD-1 cells, PE-labeled PD-L1-Ig 20 nM final; read-out: Jurkat HPD1_PDL1 IC50
T1 construct: expressed in transfected cells; host or cells: Jurkat
How it was run: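 Jurkat-hPD-1 cells in DMEM with 10% fetal calf serum receive test compound and are held at 37° C for 2 h. PE-labeled PD-L1-Ig is added at 20 nM final and left for 1 hour. Cells are then fixed and Hoechst-stained, and binding is measured by imaging.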

T1 sequence (Q15116 25-288): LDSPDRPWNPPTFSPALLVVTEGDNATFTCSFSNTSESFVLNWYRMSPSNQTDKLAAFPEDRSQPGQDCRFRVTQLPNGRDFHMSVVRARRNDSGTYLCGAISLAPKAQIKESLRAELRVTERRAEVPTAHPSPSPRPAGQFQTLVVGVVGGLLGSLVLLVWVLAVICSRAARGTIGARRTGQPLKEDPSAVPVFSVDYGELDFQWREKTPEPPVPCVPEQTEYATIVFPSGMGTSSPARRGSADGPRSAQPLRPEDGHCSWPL

First: CCC(C)[C@@H]1NC(=O)[C@H](Cc2ccc(-c3ccccc3)cc2)NC(=O)[C@H](C(C)C)NC(=O)[C@H](Cc2cccc(C)c2)NC(=O)[C@H](CC(=O)O)NC(=O)[C@H](Cc2cccnc2)NC(=O)[C@H](Cc2ccncc2)NC(=O)CSC[C@@H](C(=O)N[C@@H](C)C(N)=O)NC(=O)[C@H]([C@@H](C)O)NC(=O)[C@H](C(C)C)NC(=O)[C@H](CC2CCCCC2)NC(=O)[C@H](CCN)NC(=O)[C@@H](CC(C)C)NC(=O)[C@H](CCCN)NC1=O (some centres unmarked) [Compound 2237]
Second: CC[C@H](C)[C@@H]1NC(=O)[C@H](Cc2ccc(-c3ccccc3)cc2)NC(=O)[C@H](C(C)C)NC(=O)[C@H](Cc2cccc(C)c2)NC(=O)[C@H](CC(=O)O)NC(=O)[C@H](Cc2ccc(N=[N+]=[N-])cc2)NC(=O)[C@H](Cc2ccncc2)NC(=O)CSC[C@@H](C(=O)N[C@@H](C)C(N)=O)NC(=O)[C@H]([C@@H](C)O)NC(=O)[C@H](C(C)C)NC(=O)[C@H](CC2CCCCC2)NC(=O)[C@H](CCN)NC(=O)[C@@H](CC(C)C)NC(=O)[C@H](CCCN)NC1=O [Compound 2240]
The IC50 of the first is 11-fold lower: 22.8 nM for the first, 259 nM for the second.

First: CCC(C)[C@@H]1NC(=O)[C@H](Cc2ccc(-c3ccccc3)cc2)NC(=O)[C@H](C(C)C)NC(=O)[C@H](Cc2c[nH]c3ccccc23)NC(=O)[C@H](CC(=O)O)NC(=O)[C@H](Cc2ccncc2)NC(=O)[C@H](Cc2ccncc2)NC(=O)CSC[C@@H](C(=O)N[C@@H](C)C(N)=O)NC(=O)[C@H]([C@@H](C)O)NC(=O)[C@H](C(C)C)NC(=O)[C@H](CC2CCCCC2)NC(=O)[C@H](CCN)NC(=O)[C@@H](CC(C)C)NC(=O)[C@H](CCCN)NC1=O (stereo partly drawn) [Compound 2238] ({CH2CO}-[4Pal][4Pal]DWV[Bip][Ile(3ξ)][Orn][dL][Dab][Cha]VTCA-NH2; thioether N-14)
Second: CC(C)C[C@H]1NC(=O)[C@H](CCCN)NC(=O)[C@H](CCCCN)NC(=O)[C@H](Cc2ccc(-c3ccccc3)cc2)NC(=O)[C@H](C(C)C)NC(=O)[C@H](Cc2c[nH]c3ccccc23)NC(=O)[C@H](CC(=O)O)NC(=O)[C@H](Cc2ccncc2)NC(=O)[C@H](CN)NC(=O)CSC[C@@H](C(=O)N[C@@H](CCCN)C(N)=O)NC(=O)[C@H]([C@@H](C)O)NC(=O)[C@H](C(C)C)NC(=O)[C@H](CC2CCCCC2)NC(=O)[C@H](CCN)NC1=O [Compound 2250] ({CH2CO}-[Dap][4Pal]DWV[Bip]K[Orn][dL][Dab][Cha]VTC[Orn]-NH2; thioether N-14)
The IC50 of the first is 2.4-fold lower: 18.2 nM for the first, 43.8 nM for the second.

Compared with CCC(C)[C@@H]1NC(=O)[C@H](Cc2ccc(-c3ccccc3)cc2)NC(=O)[C@H](C(C)C)NC(=O)[C@H](Cc2cc(C)ccc2C)NC(=O)[C@H](CC(=O)O)NC(=O)[C@H](Cc2ccc(OCC(=O)O)cc2)NC(=O)[C@H](CN)NC(=O)CSC[C@@H](C(=O)N[C@@H](C)C(N)=O)NC(=O)[C@H]([C@@H](C)O)NC(=O)[C@H](C(C)C)NC(=O)[C@H](CC2CCCCC2)NC(=O)[C@H](CCN)NC(=O)[C@@H](CC(C)C)NC(=O)[C@H](CCCN)NC1=O (some centres unmarked) [Compound 2241], CCC(C)[C@@H]1NC(=O)[C@H](Cc2ccc(-c3ccccc3)cc2)NC(=O)[C@H](C(C)C)NC(=O)[C@H](Cc2cc(C)ccc2F)NC(=O)[C@H](CC(=O)O)NC(=O)[C@H](Cc2ccc(OCC(=O)O)cc2)NC(=O)[C@H](CN)NC(=O)CSC[C@@H](C(=O)N[C@@H](C)C(N)=O)NC(=O)[C@H]([C@@H](C)O)NC(=O)[C@H](C(C)C)NC(=O)[C@H](CC2CCCCC2)NC(=O)[C@H](CCN)NC(=O)[C@@H](CC(C)C)NC(=O)[C@H](CCCN)NC1=O (some centres unmarked) [Compound 2247] is 2.4-fold lower in IC50: 32.4 nM for the first, 13.3 nM for the second.

Going from CCC(C)[C@@H]1NC(=O)[C@H](Cc2ccc(-c3ccccc3)cc2)NC(=O)[C@H](C(C)C)NC(=O)[C@H](Cc2cccc(C)c2C)NC(=O)[C@H](CC(=O)O)NC(=O)[C@H](Cc2ccc(OCC(=O)O)cc2)NC(=O)[C@H](CN)NC(=O)CSC[C@@H](C(=O)N[C@@H](C)C(N)=O)NC(=O)[C@H]([C@@H](C)O)NC(=O)[C@H](C(C)C)NC(=O)[C@H](CC2CCCCC2)NC(=O)[C@H](CCN)NC(=O)[C@@H](CC(C)C)NC(=O)[C@H](CCCN)NC1=O (some centres unmarked) [Compound 2242] to CCC(C)[C@@H]1NC(=O)[C@H](Cc2ccc(-c3ccccc3)cc2)NC(=O)[C@H](C(C)C)NC(=O)[C@H](Cc2cccc(C)c2F)NC(=O)[C@H](CC(=O)O)NC(=O)[C@H](Cc2ccc(OCC(=O)O)cc2)NC(=O)[C@H](CN)NC(=O)CSC[C@@H](C(=O)N[C@@H](C)C(N)=O)NC(=O)[C@H]([C@@H](C)O)NC(=O)[C@H](C(C)C)NC(=O)[C@H](CC2CCCCC2)NC(=O)[C@H](CCN)NC(=O)[C@@H](CC(C)C)NC(=O)[C@H](CCCN)NC1=O (some centres unmarked) [Compound 2243], the IC50 rises from 10.3 nM to 16.2 nM (1.6-fold).

CCC(C)[C@@H]1NC(=O)[C@H](Cc2ccc(-c3ccccc3)cc2)NC(=O)[C@H](C(C)C)NC(=O)[C@H](Cc2ccc(F)c(C)c2)NC(=O)[C@H](CC(=O)O)NC(=O)[C@H](Cc2ccc(OCC(=O)O)cc2)NC(=O)[C@H](CN)NC(=O)CSC[C@@H](C(=O)N[C@@H](C)C(N)=O)NC(=O)[C@H]([C@@H](C)O)NC(=O)[C@H](C(C)C)NC(=O)[C@H](CC2CCCCC2)NC(=O)[C@H](CCN)NC(=O)[C@@H](CC(C)C)NC(=O)[C@H](CCCN)NC1=O (some centres unmarked) [Compound 2244] and CCC(C)[C@@H]1NC(=O)[C@H](Cc2ccc(-c3ccccc3)cc2)NC(=O)[C@H](C(C)C)NC(=O)[C@H](Cc2ccc(F)c(C(F)(F)F)c2)NC(=O)[C@H](CC(=O)O)NC(=O)[C@H](Cc2ccc(OCC(=O)O)cc2)NC(=O)[C@H](CN)NC(=O)CSC[C@@H](C(=O)N[C@@H](C)C(N)=O)NC(=O)[C@H]([C@@H](C)O)NC(=O)[C@H](C(C)C)NC(=O)[C@H](CC2CCCCC2)NC(=O)[C@H](CCN)NC(=O)[C@@H](CC(C)C)NC(=O)[C@H](CCCN)NC1=O (some centres unmarked) [Compound 2245] are within 1.5-fold of each other in IC50: 32.9 nM for the first, 45.5 nM for the second.

CCC(C)[C@@H]1NC(=O)[C@H](Cc2ccc(-c3ccccc3)cc2)NC(=O)[C@H](C(C)C)NC(=O)[C@H](Cc2cc(OC)c(F)cc2F)NC(=O)[C@H](CC(=O)O)NC(=O)[C@H](Cc2ccc(OCC(=O)O)cc2)NC(=O)[C@H](CN)NC(=O)CSC[C@@H](C(=O)N[C@@H](C)C(N)=O)NC(=O)[C@H]([C@@H](C)O)NC(=O)[C@H](C(C)C)NC(=O)[C@H](CC2CCCCC2)NC(=O)[C@H](CCN)NC(=O)[C@@H](CC(C)C)NC(=O)[C@H](CCCN)NC1=O (some centres unmarked) [Compound 2246] and CCC(C)[C@@H]1NC(=O)[C@H](Cc2ccc(-c3ccccc3)cc2)NC(=O)[C@H](C(C)C)NC(=O)[C@H](Cc2cc(OC)ccc2F)NC(=O)[C@H](CC(=O)O)NC(=O)[C@H](Cc2ccc(OCC(=O)O)cc2)NC(=O)[C@H](CN)NC(=O)CSC[C@@H](C(=O)N[C@@H](C)C(N)=O)NC(=O)[C@H]([C@@H](C)O)NC(=O)[C@H](C(C)C)NC(=O)[C@H](CC2CCCCC2)NC(=O)[C@H](CCN)NC(=O)[C@@H](CC(C)C)NC(=O)[C@H](CCCN)NC1=O (some centres unmarked) [Compound 2248] are within 1.5-fold of each other in IC50: 13.2 nM for the first, 13.8 nM for the second.

Going from CCC(C)[C@@H]1NC(=O)[C@H](Cc2ccc(-c3ccccc3)cc2)NC(=O)[C@H](C(C)C)NC(=O)[C@H](Cc2cc(C)ccc2OC)NC(=O)[C@H](CC(=O)O)NC(=O)[C@H](Cc2ccc(OCC(=O)O)cc2)NC(=O)[C@H](CN)NC(=O)CSC[C@@H](C(=O)N[C@@H](C)C(N)=O)NC(=O)[C@H]([C@@H](C)O)NC(=O)[C@H](C(C)C)NC(=O)[C@H](CC2CCCCC2)NC(=O)[C@H](CCN)NC(=O)[C@@H](CC(C)C)NC(=O)[C@H](CCCN)NC1=O (some centres unmarked) [Compound 2249] to Cc1cccc(C[C@@H]2NC(=O)[C@H](CC(=O)O)NC(=O)[C@H](Cc3ccc(OCC(=O)O)cc3)NC(=O)[C@H](CN)NC(=O)CSC[C@@H](C(=O)NCC(N)=O)NC(=O)[C@H]([C@@H](C)O)NC(=O)[C@H](C(C)C)NC(=O)[C@H](CC3CCCCC3)NC(=O)[C@H](CCN)NC(=O)[C@@H](CC(C)C)NC(=O)[C@H](CCCN)NC(=O)[C@H](CCCNC(N)=O)NC(=O)[C@H](Cc3ccc(-c4ccccc4)cc3)NC(=O)[C@H](C(C)C)NC2=O)c1 [Compound 2255] ({CH2CO}-[Dap]Y(Carboxymethyl)D[Phe(3-Me)]V[Bip][Cit][Orn][dL][Dab][Cha]VTCG-NH2; thioether N-14), the IC50 falls from 134 nM to 11.8 nM (11-fold).

CC(C)C[C@H]1NC(=O)[C@H](CCCN)NC(=O)[C@H](CCCCN)NC(=O)[C@H](Cc2ccc(-c3ccccc3)cc2)NC(=O)[C@H](C(C)C)NC(=O)[C@H](Cc2c[nH]c3ccccc23)NC(=O)[C@H](CC(=O)O)NC(=O)[C@H](Cc2ccncc2)NC(=O)[C@H](CN)NC(=O)CSC[C@@H](C(=O)N[C@@H](CCCN)C(N)=O)NC(=O)[C@H](CN)NC(=O)[C@H](C(C)C)NC(=O)[C@H](CC2CCCCC2)NC(=O)[C@H](CCN)NC1=O [Compound 2251] ({CH2CO}-[Dap][4Pal]DWV[Bip]K[Orn][dL][Dab][Cha]V[Dap]C[Orn]-NH2; thioether N-14) and CC(C)C[C@H]1NC(=O)[C@H](CCCN)NC(=O)[C@H](CCCCN)NC(=O)[C@H](Cc2ccc(-c3ccccc3)cc2)NC(=O)[C@H](C(C)C)NC(=O)[C@H](Cc2c[nH]c3ccccc23)NC(=O)[C@H](CC(=O)O)NC(=O)[C@H](Cc2ccncc2)NC(=O)[C@H](CN)NC(=O)CSC[C@@H](C(=O)N[C@@H](CCCN)C(N)=O)NC(=O)[C@H](CCCN)NC(=O)[C@H](C(C)C)NC(=O)[C@H](CC2CCCCC2)NC(=O)[C@H](CCN)NC1=O [Compound 2253] ({CH2CO}-[Dap][4Pal]DWV[Bip]K[Orn][dL][Dab][Cha]V[Orn]C[Orn]-NH2; thioether N-14) are within 1.5-fold of each other in IC50: 139 nM for the first, 138 nM for the second.

For CC(C)C[C@H]1NC(=O)[C@H](CCCN)NC(=O)[C@H](CCCCN)NC(=O)[C@H](Cc2ccc(-c3ccccc3)cc2)NC(=O)[C@H](C(C)C)NC(=O)[C@H](Cc2c[nH]c3ccccc23)NC(=O)[C@H](CC(=O)O)NC(=O)[C@H](Cc2ccncc2)NC(=O)[C@H](CN)NC(=O)CSC[C@@H](C(=O)N[C@@H](CCCN)C(N)=O)NC(=O)[C@H](CCCNC(=N)N)NC(=O)[C@H](C(C)C)NC(=O)[C@H](CC2CCCCC2)NC(=O)[C@H](CCN)NC1=O [Compound 2254] ({CH2CO}-[Dap][4Pal]DWV[Bip]K[Orn][dL][Dab][Cha]VRC[Orn]-NH2; thioether N-14), the IC50 was 123 nM.
